From patent US7183301B2, “Heterocyclic compounds having antibacterial activity: process for their preparation and pharmaceutical compositions containing them” (Dr. Reddy's Research Foundation, priority 2000, dated 2007)
≈ marks a conversion by molar mass, not a printed value.

tested on: Staphylococcus aureus ATCC 33591 (DRCC 019, MRSA); assay: MIC by broth microdilution, S. aureus DRCC 019 (MRSA); assay type: cell-based; settings: Mueller Hinton Broth, overnight 37° C., strain DRCC 019 (ATCC 33591), read-out: Antimicrobial Screening (MIC) Staphylococcus aureus 019 MRSA
Protocol: (§1) Minimum Inhibiton Concentrations (MICs) were determined by broth microdilution technique as per the guidelines prescribed om the fifth edition of Approved Standards, NCCLS document M7-A5 Vol 20-No 2, 2000 Villinova, Pa.
(§2) Initial stock solution of the test compound was prepared in DMSO. Subsequent two fold dilutions were carried out in sterile Mueller Hinton Broth (Difco) (MHB).
(§3) Frozen cultures stocks were inoculated into 50 ml sterile MHB in 250 ml Erlyn Meyer flasks.
(§4) Composition of MHB is as follows:
(§5) Flasks were incubated for 4 to 5 h at 35° C. on a rotary shaker at 150 rpm. Inoculum was prepared by diluting the culture in sterile MHB to obtain a turbidity of 0.5 McFarland standard. This corresponds to 1–2×10^8 CFU/ml. The stock was further diluted in sterile broth to obtain 1–2×10^6 CFU/ml. 50 μl of the above diluted inoculum was added from 1–10 wells. The plates were incubated overnight at 37° C.

| Compound | MIC [µg/mL] |
| --- | --- |
| CC(=S)NC[C@H]1CN(c2ccc(N3CCN(C)C3=O)c(F)c2)C(=O)O1 [Example 79] | 2 (≈ 5.46 µM) |
| COC(=S)NC[C@H]1CN(c2ccc(N3CCN(C)C3=O)c(F)c2)C(=O)O1 [Example 113] | 2 (≈ 5.23 µM) |
| COC(=S)NC[C@H]1CN(c2ccc(N3CCOC3=O)cc2)C(=O)O1 [Example 100] | 0.5 (≈ 1.42 µM) |
| CC(C)OC(=S)NC[C@H]1CN(c2ccc(N3CCOC3=O)cc2)C(=O)O1 [Example 107] | 2 (≈ 5.27 µM) |
| COCN1CN(c2ccc(N3C[C@H](CNC(=S)OC)OC3=O)cc2F)CC1=O [Example 127] | 0.5 (≈ 1.21 µM) |
| CC(=O)NC[C@H]1CN(c2ccc(N3CCOC3=O)cc2)C(=O)O1 [Example 62] | 2 (≈ 6.26 µM) |
| COC(=S)NC[C@H]1CN(c2ccc(N3CCOC3=O)c(F)c2)C(=O)O1 [Example 88] | 1 (≈ 2.71 µM) |
| COC(=S)NC[C@H]1CN(c2cc(F)c(N3CCOC3=O)c(F)c2)C(=O)O1 [Example 99] | 2 (≈ 5.16 µM) |
| COC(=S)NC[C@H]1CN(c2ccc(N3CC(=O)N(CO)C3)c(F)c2)C(=O)O1 [Example 124] | 0.25 (≈ 0.627 µM) |
| COC(=S)NC[C@H]1CN(c2ccc(N3CC(=S)N(C)C3)c(F)c2)C(=O)O1 [Example 125] | 0.25 (≈ 0.627 µM) |

tested on: Staphylococcus aureus ATCC 49951 (DRCC 213, Smith S); assay: MIC by broth microdilution, S. aureus DRCC 213 (Smith S); assay type: cell-based; settings: ATCC49951, Mueller Hinton Broth, overnight 37° C., strain DRCC 213 (ATCC 49951), read-out: Antimicrobial Screening (MIC) Staphylococcus aureus 213 Smith S
Protocol: as §1, §2, §3, §4, §5

| Compound | MIC [µg/mL] |
| --- | --- |
| CC(=S)NC[C@H]1CN(c2ccc(N3CCN(C)C3=O)c(F)c2)C(=O)O1 [Example 79] | 2 (≈ 5.46 µM) |
| COC(=S)NC[C@H]1CN(c2ccc(N3CCN(C)C3=O)c(F)c2)C(=O)O1 [Example 113] | 4 (≈ 10.5 µM) |
| COC(=S)NC[C@H]1CN(c2ccc(N3CCOC3=O)cc2)C(=O)O1 [Example 100] | 0.5 (≈ 1.42 µM) |
| CC(C)OC(=S)NC[C@H]1CN(c2ccc(N3CCOC3=O)cc2)C(=O)O1 [Example 107] | 4 (≈ 10.5 µM) |
| COCN1CN(c2ccc(N3C[C@H](CNC(=S)OC)OC3=O)cc2F)CC1=O [Example 127] | 1 (≈ 2.42 µM) |
| CC(=O)NC[C@H]1CN(c2ccc(N3CCOC3=O)cc2)C(=O)O1 [Example 62] | 1 (≈ 3.13 µM) |
| COC(=S)NC[C@H]1CN(c2ccc(N3CCOC3=O)c(F)c2)C(=O)O1 [Example 88] | 1 (≈ 2.71 µM) |
| COC(=S)NC[C@H]1CN(c2cc(F)c(N3CCOC3=O)c(F)c2)C(=O)O1 [Example 99] | 2 (≈ 5.16 µM) |
| COC(=S)NC[C@H]1CN(c2ccc(N3CC(=O)N(CO)C3)c(F)c2)C(=O)O1 [Example 124] | 0.25 (≈ 0.627 µM) |
| COC(=S)NC[C@H]1CN(c2ccc(N3CC(=S)N(C)C3)c(F)c2)C(=O)O1 [Example 125] | 0.25 (≈ 0.627 µM) |

tested on: Staphylococcus aureus ATCC 29213 (DRCC 035, S); assay: MIC by broth microdilution, S. aureus DRCC 035 (S); assay type: cell-based; settings: ATCC29213, Mueller Hinton Broth, overnight 37° C., strain DRCC 035 (ATCC 29213), read-out: Antimicrobial Screening (MIC) Staphylococcus aureus 035 S
Protocol: as §1, §2, §3, §4, §5

| Compound | MIC [µg/mL] |
| --- | --- |
| CC(=S)NC[C@H]1CN(c2ccc(N3CCN(C)C3=O)c(F)c2)C(=O)O1 [Example 79] | 4 (≈ 10.9 µM) |
| COC(=S)NC[C@H]1CN(c2ccc(N3CCN(C)C3=O)c(F)c2)C(=O)O1 [Example 113] | 4 (≈ 10.5 µM) |
| COC(=S)NC[C@H]1CN(c2ccc(N3CCOC3=O)cc2)C(=O)O1 [Example 100] | 0.5 (≈ 1.42 µM) |
| CC(C)OC(=S)NC[C@H]1CN(c2ccc(N3CCOC3=O)cc2)C(=O)O1 [Example 107] | 4 (≈ 10.5 µM) |
| COCN1CN(c2ccc(N3C[C@H](CNC(=S)OC)OC3=O)cc2F)CC1=O [Example 127] | 1 (≈ 2.42 µM) |
| CC(=O)NC[C@H]1CN(c2ccc(N3CCOC3=O)cc2)C(=O)O1 [Example 62] | 4 (≈ 12.5 µM) |
| COC(=S)NC[C@H]1CN(c2ccc(N3CCOC3=O)c(F)c2)C(=O)O1 [Example 88] | 2 (≈ 5.41 µM) |
| COC(=S)NC[C@H]1CN(c2cc(F)c(N3CCOC3=O)c(F)c2)C(=O)O1 [Example 99] | 2 (≈ 5.16 µM) |
| COC(=S)NC[C@H]1CN(c2ccc(N3CC(=O)N(CO)C3)c(F)c2)C(=O)O1 [Example 124] | 0.5 (≈ 1.25 µM) |
| COC(=S)NC[C@H]1CN(c2ccc(N3CC(=S)N(C)C3)c(F)c2)C(=O)O1 [Example 125] | 0.5 (≈ 1.25 µM) |

tested on: Enterococcus faecalis ATCC 29212 (DRCC 034, S); assay: MIC by broth microdilution, Enterococcus DRCC 034 (S); assay type: cell-based; settings: ATCC29212, Mueller Hinton Broth, overnight 37° C., strain DRCC 034 (E. faecalis ATCC 29212), read-out: Antimicrobial Screening (MIC) Enterococcus sp 034 S
Protocol: as §1, §2, §3, §4, §5

| Compound | MIC [µg/mL] |
| --- | --- |
| CC(=S)NC[C@H]1CN(c2ccc(N3CCN(C)C3=O)c(F)c2)C(=O)O1 [Example 79] | 4 (≈ 10.9 µM) |
| COC(=S)NC[C@H]1CN(c2ccc(N3CCN(C)C3=O)c(F)c2)C(=O)O1 [Example 113] | 4 (≈ 10.5 µM) |
| COC(=S)NC[C@H]1CN(c2ccc(N3CCOC3=O)cc2)C(=O)O1 [Example 100] | 1 (≈ 2.85 µM) |
| CC(C)OC(=S)NC[C@H]1CN(c2ccc(N3CCOC3=O)cc2)C(=O)O1 [Example 107] | 8 (≈ 21.1 µM) |
| COCN1CN(c2ccc(N3C[C@H](CNC(=S)OC)OC3=O)cc2F)CC1=O [Example 127] | 1 (≈ 2.42 µM) |
| COC(=S)NC[C@H]1CN(c2ccc(N3CCOC3=O)c(F)c2)C(=O)O1 [Example 88] | 2 (≈ 5.41 µM) |
| COC(=S)NC[C@H]1CN(c2cc(F)c(N3CCOC3=O)c(F)c2)C(=O)O1 [Example 99] | 2 (≈ 5.16 µM) |
| COC(=S)NC[C@H]1CN(c2ccc(N3CC(=O)N(CO)C3)c(F)c2)C(=O)O1 [Example 124] | 0.5 (≈ 1.25 µM) |
| COC(=S)NC[C@H]1CN(c2ccc(N3CC(=S)N(C)C3)c(F)c2)C(=O)O1 [Example 125] | 0.5 (≈ 1.25 µM) |

tested on: Enterococcus faecalis NCTC 12201 (DRCC 153, R); assay: MIC by broth microdilution, Enterococcus DRCC 153 (R); assay type: cell-based; settings: NCTC12201, Mueller Hinton Broth, overnight 37° C., strain DRCC 153 (E. faecalis NCTC 12201), read-out: Antimicrobial Screening (MIC) Enterococcus sp 153 R
Protocol: as §1, §2, §3, §4, §5

| Compound | MIC [µg/mL] |
| --- | --- |
| CC(=S)NC[C@H]1CN(c2ccc(N3CCN(C)C3=O)c(F)c2)C(=O)O1 [Example 79] | 8 (≈ 21.8 µM) |
| COC(=S)NC[C@H]1CN(c2ccc(N3CCN(C)C3=O)c(F)c2)C(=O)O1 [Example 113] | 4 (≈ 10.5 µM) |
| COC(=S)NC[C@H]1CN(c2ccc(N3CCOC3=O)cc2)C(=O)O1 [Example 100] | 1 (≈ 2.85 µM) |
| CC(C)OC(=S)NC[C@H]1CN(c2ccc(N3CCOC3=O)cc2)C(=O)O1 [Example 107] | 4 (≈ 10.5 µM) |
| COCN1CN(c2ccc(N3C[C@H](CNC(=S)OC)OC3=O)cc2F)CC1=O [Example 127] | 1 (≈ 2.42 µM) |
| CC(=O)NC[C@H]1CN(c2ccc(N3CCOC3=O)cc2)C(=O)O1 [Example 62] | 8 (≈ 25.1 µM) |
| COC(=S)NC[C@H]1CN(c2ccc(N3CCOC3=O)c(F)c2)C(=O)O1 [Example 88] | 2 (≈ 5.41 µM) |
| COC(=S)NC[C@H]1CN(c2cc(F)c(N3CCOC3=O)c(F)c2)C(=O)O1 [Example 99] | 2 (≈ 5.16 µM) |
| COC(=S)NC[C@H]1CN(c2ccc(N3CC(=O)N(CO)C3)c(F)c2)C(=O)O1 [Example 124] | 0.25 (≈ 0.627 µM) |
| COC(=S)NC[C@H]1CN(c2ccc(N3CC(=S)N(C)C3)c(F)c2)C(=O)O1 [Example 125] | 0.25 (≈ 0.627 µM) |

tested on: Enterococcus faecium NCTC 12202 (DRCC 154, R); assay: MIC by broth microdilution, Enterococcus DRCC 154 (R); assay type: cell-based; settings: NCTC12202, Mueller Hinton Broth, overnight 37° C., strain DRCC 154 (E. faecium NCTC 12202), read-out: Antimicrobial Screening (MIC) Enterococcus sp 154 R
Protocol: as §1, §2, §3, §4, §5

| Compound | MIC [µg/mL] |
| --- | --- |
| CC(=S)NC[C@H]1CN(c2ccc(N3CCN(C)C3=O)c(F)c2)C(=O)O1 [Example 79] | 8 (≈ 21.8 µM) |
| COC(=S)NC[C@H]1CN(c2ccc(N3CCN(C)C3=O)c(F)c2)C(=O)O1 [Example 113] | 8 (≈ 20.9 µM) |
| COC(=S)NC[C@H]1CN(c2ccc(N3CCOC3=O)cc2)C(=O)O1 [Example 100] | 1 (≈ 2.85 µM) |
| CC(C)OC(=S)NC[C@H]1CN(c2ccc(N3CCOC3=O)cc2)C(=O)O1 [Example 107] | 4 (≈ 10.5 µM) |
| COCN1CN(c2ccc(N3C[C@H](CNC(=S)OC)OC3=O)cc2F)CC1=O [Example 127] | 1 (≈ 2.42 µM) |
| CC(=O)NC[C@H]1CN(c2ccc(N3CCOC3=O)cc2)C(=O)O1 [Example 62] | 8 (≈ 25.1 µM) |
| COC(=S)NC[C@H]1CN(c2ccc(N3CCOC3=O)c(F)c2)C(=O)O1 [Example 88] | 2 (≈ 5.41 µM) |
| COC(=S)NC[C@H]1CN(c2cc(F)c(N3CCOC3=O)c(F)c2)C(=O)O1 [Example 99] | 2 (≈ 5.16 µM) |
| COC(=S)NC[C@H]1CN(c2ccc(N3CC(=O)N(CO)C3)c(F)c2)C(=O)O1 [Example 124] | 0.5 (≈ 1.25 µM) |
| COC(=S)NC[C@H]1CN(c2ccc(N3CC(=S)N(C)C3)c(F)c2)C(=O)O1 [Example 125] | 0.5 (≈ 1.25 µM) |

tested on: Escherichia coli ATCC 25922 (DRCC 018, S); assay: MIC by broth microdilution, E coli DRCC 018 (S); assay type: cell-based; settings: ATCC25922, Mueller Hinton Broth, overnight 37° C., strain DRCC 018 (ATCC 25922), read-out: Antimicrobial Screening (MIC) E coli 18 S
Protocol: as §1, §2, §3, §4, §5

| Compound | MIC [µg/mL] |
| --- | --- |
| CC(=S)NC[C@H]1CN(c2ccc(N3CCN(C)C3=O)c(F)c2)C(=O)O1 [Example 79] | 32 (≈ 87.3 µM) |
| COC(=S)NC[C@H]1CN(c2ccc(N3CCN(C)C3=O)c(F)c2)C(=O)O1 [Example 113] | 32 (≈ 83.7 µM) |
| COC(=S)NC[C@H]1CN(c2ccc(N3CCOC3=O)cc2)C(=O)O1 [Example 100] | 32 (≈ 91.1 µM) |
| CC(C)OC(=S)NC[C@H]1CN(c2ccc(N3CCOC3=O)cc2)C(=O)O1 [Example 107] | 32 (≈ 84.3 µM) |
| CC(=O)NC[C@H]1CN(c2ccc(N3CCOC3=O)cc2)C(=O)O1 [Example 62] | 32 (≈ 100 µM) |
| COC(=S)NC[C@H]1CN(c2ccc(N3CCOC3=O)c(F)c2)C(=O)O1 [Example 88] | > 32 |
| COC(=S)NC[C@H]1CN(c2cc(F)c(N3CCOC3=O)c(F)c2)C(=O)O1 [Example 99] | > 32 |
